Source: PubChem BioAssay (NCI)
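Following 48 hours of exposure in 96-well plates, responses at five concentrations were used to interpolate endpoints linearly. TGI: total growth inhibition.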

Assays:
Test in all cases: NCI tumour cell line growth inhibition, 48 h
[1] = tested on: CAKI-1 renal
[2] = tested on: SN12C renal
[3] = tested on: HOP-18 NSCLC
[4] = tested on: A549 NSCLC
[5] = tested on: U251 CNS
[6] = tested on: HL-60(TB) leukemia
[7] = tested on: SK-OV-3 ovarian
[8] = tested on: NCI/ADR-RES ovarian
[9] = tested on: MOLT-4 leukemia
[10] = tested on: SNB-19 CNS
[11] = tested on: SK-MEL-5 melanoma
[12] = tested on: SNB-78 CNS
[13] = tested on: OVCAR-8 ovarian
[14] = tested on: P388 leukemia
[15] = tested on: SF-539 CNS
[16] = tested on: HOP-62 NSCLC
[17] = tested on: KM12 colon
[18] = tested on: LOX IMVI melanoma
[19] = tested on: COLO 205 colon
[20] = tested on: HCT-116 colon
[21] = tested on: RXF 393 renal
[22] = tested on: EKVX NSCLC
[23] = tested on: DMS 273 small cell lung
[24] = tested on: UACC-257 melanoma
[25] = tested on: SF-295 CNS
[26] = tested on: OVCAR-4 ovarian
[27] = tested on: A498 renal
[28] = tested on: SW-620 colon
[29] = tested on: SK-MEL-2 melanoma
[30] = tested on: HOP-92 NSCLC
[31] = tested on: XF 498 CNS
[32] = tested on: UO-31 renal
[33] = tested on: CCRF-CEM leukemia
[34] = tested on: OVCAR-5 ovarian
[35] = tested on: NCI-H226 lung
[36] = tested on: SN12K1 renal
[37] = tested on: SNB-75 CNS
[38] = tested on: NCI-H23 lung
[39] = tested on: NCI-H460 lung
[40] = tested on: SF-268 CNS
[41] = tested on: RPMI-8226 leukemia
[42] = tested on: DLD-1 colon
[43] = tested on: OVCAR-3 ovarian
[44] = tested on: MALME-3M melanoma
[45] = tested on: HCC-2998 colon
[46] = tested on: P388/ADR leukemia
[47] = tested on: KM20L2 colon
[48] = tested on: SK-MEL-28 melanoma
[49] = tested on: K-562 leukemia
[50] = tested on: IGROV1 ovarian
[51] = tested on: NCI-H522 lung
[52] = tested on: M19-MEL melanoma
[53] = tested on: DMS 114 small cell lung
[54] = tested on: MCF7 breast
[55] = tested on: UACC-62 melanoma
[56] = tested on: HCT-15 colon
[57] = tested on: HT29 colon

SMILES: CC[C@@]1(O)C[C@H](OC2CC(N(C)C)C(OC3CC(O)C(OC4CC(O)C(O)C(C)O4)C(C)O3)C(C)O2)c2c(cc3c(c2O)C(=O)c2c(O)ccc(O)c2C3=O)[C@H]1C(=O)OC (some centres not stated)
- TGI [1]: 142 nM
- TGI [2]: 2090 nM
- TGI [3]: 1320 nM
- TGI [4]: 19800 nM
- TGI [5]: 3180 nM
- TGI [6]: 1370 nM
- TGI [7]: 3040 nM
- TGI [8]: 10200 nM
- TGI [9]: 103 nM
- TGI [10]: 4300 nM
- TGI [11]: 135 nM
- TGI [12]: 2100 nM
- TGI [13]: 1150 nM
- TGI [14]: 89.2 nM
- TGI [15]: 341 nM
- TGI [16]: 500 nM
- TGI [17]: 3030 nM
- TGI [18]: 3670 nM
- TGI [19]: 390 nM
- TGI [20]: 118 nM
- TGI [21]: 112 nM
- TGI [22]: 982 nM
- TGI [23]: 482 nM
- TGI [24]: 184 nM
- TGI [25]: 654 nM
- TGI [26]: 564 nM
- TGI [27]: 89.1 nM
- TGI [28]: 1940 nM
- TGI [29]: 124 nM
- TGI [30]: 867 nM
- TGI [31]: 225 nM
- TGI [32]: 1220 nM
- TGI [33]: 1810 nM
- TGI [34]: 3100 nM
- TGI [35]: 203 nM
- TGI [36]: 67.8 nM
- TGI [37]: 390 nM
- TGI [38]: 314 nM
- TGI [39]: 103 nM
- TGI [40]: 1490 nM
- TGI [41]: 385 nM
- TGI [42]: 3590 nM
- TGI [43]: 347 nM
- TGI [44]: 196 nM
- TGI [45]: 662 nM
- TGI [46]: 2230 nM
- TGI [47]: 2620 nM
- TGI [48]: 293 nM
- TGI [49]: 1700 nM
- TGI [50]: 3840 nM
- TGI [51]: 153 nM
- TGI [52]: 210 nM
- TGI [53]: 959 nM
- TGI [54]: 959 nM
- TGI [55]: 106 nM
- TGI [56]: 2660 nM
- TGI [57]: 871 nM
